Experimental data taken from patent US20260191793A1, “HBV SPECIFIC EXOSOMES AND USES THEREOF” (priority 2022, published 2026).

What was measured:
[1] = test system: HBV replication in HepG2/2.2.15 cells; experiment: Antiviral efficiency of synthetic gRNA/Cas9 RNPs in HepG2/2.2.15 cells (HBsAg/HBeAg ELISA, HBV mRNA and HBV DNA real-time PCR); assay type: cell-based, Hepatitis B virus (HBV); parameters: reduction in HBsAg expression / reduction of HBV mRNA expression: concentration or dose not given beside the values; details: for reduction of HBV mRNA expression: HepG2/2.2.15 cells, real-time PCR, vs gRNAc; for reduction in HBsAg expression: HepG2/2.2.15 supernatant, 3 days after nucleofection, ELISA, vs scrambled gRNAc; for antiviral efficacy among the 9 gRNAs tested: HepG2.2.15 cells
Method: The HepG2.2.15 Human Hepatoblastoma cell line (Cat #SCC249, MilliporeSigma, Burlington, MA) is a traditional HBV cellular model that is widely used for studying HBV infection and drug development. HepG2.2.15 cells display constitutive HBV RNA transcription and DNA replication, but a lesser detection of cccDNA by Southern blot and PCR detection. The HepG2/2.2.15 cells were cultured in DMEM (Cat #MT10013CV, Fisher Scientific, Waltham, MA) supplemented with 10% Fetal bovine serum, penicillin, and streptomycin (50 ug/ml each; Fisher Scientific) and maintained at 37° C. and 5% CO2 atmosphere. The Amaxa Cell Line Nucleofector Kit V (Lonza VCA-1003) was used to deliver gRNA/Cas9 into HepG2/2.2.15 cells stably expressing HBV. For each transfection, 160 μM gRNA and 160 μM tracrRNA were first incubated at 37° C. for 30 minutes, followed by adding 80 μM Cas9 protein and incubating at 37° C. for 15 minutes. Approximately 40 μM of the gRNA/Cas9 complex was transfected into HepG2/2.2.15 cells (5×10^5) following the manufacturer's instructions. After 72 hours, the culture supernatants were harvested to measure HBV antigens by ELISA, and the cell pellets were used to determine HBV DNA or mRNA levels by real-time-PCR.
The levels of HBsAg and HBeAg in the supernatants of cell cultures were determined by ELISA (Cat #KA0286 and NBP2-600029, Novus Biologicals, Littleton, CO) according to the manufacturer's protocol. The optical density of antigen levels was measured at 450 nm using a microplate spectrophotometer. The samples were run in triplicate, and the experiments were repeated at least three times.
Total RNA was extracted from the cell pellets by the RNeasy Mini kit (Cat #74104, QIAGEN, Germantown, MD), and 1 μg RNA was converted to cDNA using the Applied Biosystems High-Capacity cDNA Reverse Transcription Kit (Cat #43-688-14, ThermoFisher, Waltham, MA). Quantitative real-time PCR (real-time-qPCR) was performed using iTaq Universal SYBR Green Supermix (Cat #1725124, Bio-Rad, Hercules, CA). The PCR primers were: HBV mRNA forward, 5′-[…]-3′ (SEQ ID NO: 52), reverse, 5′-[…]-3′ (SEQ ID NO: 53); HBV pgRNA forward 5′-[…]-3′ (SEQ ID NO: 54), reverse 5′-[…]-3′ (SEQ ID NO: 55); and GAPDH forward 5′-[…]-3′ (SEQ ID NO: 56), reverse 5′-[…]-3′ (SEQ ID NO: 57). The gene expression levels were determined by the […] method and values were normalized to GAPDH expression as an internal control.
Total and protein-free HBV DNAs were extracted from whole cell lysate using the Hirt DNA method according to a previously published protocol. For HBV cccDNA analysis, the protein-free DNA was treated with 10 units of T5 exonuclease (NEB) at 37° C. for 30 min, followed by 95° C. for 5 min, and diluted 4-fold with nuclease-free water. Next, the cccDNA was cleaned with a DNA clean and concentrator kit (ZYMO Research, Irvine, CA) and used for PCR. HBV total DNA and cccDNA were analyzed by real-time PCR using a TaqMan PCR assay. The primers and probe used to amplify HBV total DNA were: HBV total DNA forward: 5′-[…]-3′ (SEQ ID NO: 58), reverse 5′-[…]-3′ (SEQ ID NO: 59), and internal probe: 5′-FAM-[…]-TAMRA-3′ (SEQ ID NO: 60). The primers and probe used to amplify HBV cccDNA (Genotype D, subtype ayw) were: forward: 5′-[…]-3′ (SEQ ID NO: 61), reverse 5′-[…]-3′ (SEQ ID NO: 62), and internal probe 5′-FAM-[…]-TAMRA-3′ (SEQ ID NO: 63). The PCR reactions were performed in 20 μl volumes and contained 2 μl DNA. The PCR conditions were: 95° C. for 10 min, followed by 45 cycles of 95° C. for 15 s and 64° C. for 30 s. The DNA levels were determined by the […] method and values were normalized to the control group.
Because the hepatoma cell line HepG2/2.2.15 is a traditional HBV cellular model used to test the efficacy and cytotoxicity of anti-HBV drugs, the synthetic gRNA/Cas9 RNPs were tested for their antiviral efficiency in HepG2/2.2.15 cells. […]

[2] = test system: HepDE19 cells; experiment: Cytotoxicity, cell viability by MTT assay; assay type: cell-based, human; details: for cell viability in the presence of TNFα: Tet-free medium, TNFα (10 ng/ml); for cell viability (MTT): with or without Tet-free medium, 24 h, vs non-transfected (NT) control
Method: The MTT assay was used to determine metabolic activity and cell viability as an indicator of cellular cytotoxicity. Twenty-four hours after gRNA/Cas9 transfection, the cells were cultured in a Tet-free medium for an additional 24 h. For measuring cell proliferation, the cells were cultured in the Tet-free medium for an additional 3 days in a 96-well plate. The culture medium (100 μl) was changed and MTT reagent (0.5 mg/ml) was added at 37° C. for 4 h, followed by measuring the absorbance at 550-690 nm using a spectrophotometer (BioTek SYNERGY H1).
NAD (P) H-dependent cellular oxidoreductase enzymes reduce the tetrazolium MTT (3-(4,5-Dimethylthiazol 2-yl)-2,5-diphenyltetrazolium bromide) salt into insoluble formazan, which indicates the overall survival and metabolic activity of a living cell. To determine whether gRNA5/Cas9 or gRNA9/Cas9 exert any cytotoxic effects on HepDE19 cells, cell viability after transfection with gRNA5 or gRNA9 in the presence or absence of Tet-free medium (for HBV induction) for 24 h was measured using the MTT assay. […] Since HBV itself is not a direct cytopathic pathogen but can induce cell injury via immune-mediated mechanisms, the viability of transfected and non-transfected HepDE19 cells cultured in a Tet-free medium in the presence of TNFα, which can induce apoptotic cell death, was observed. […] Moreover, flow cytometry analysis was performed to detect the cell surface apoptotic marker annexin V and the loss of the plasma membrane integrity (measured by up taking 7-ADD). Cell apoptosis was then evaluated by measuring the Av and 7ADD levels in gRNA-transfected HepDE19 cells with or without Tet-free medium. No significant differences in cell apoptosis among the different treatments were observed (FIG. 16C). Finally, the proliferative ability of HepDE19 cells with or without gRNA transfection for 3 days was assessed, using the MTT assay. No significant differences in cell proliferation were found (FIG. 16D).

| Sequence | reduction of HBV mRNA expression [1] | reduction in HBsAg expression [1] [%] | antiviral efficacy among the 9 gRNAs tested [1] | cytotoxicity to hepatocytes (overall conclusion) [2] | cell viability in the presence of TNFα [2] | cell viability (MTT) [2] | cell viability (MTT) ([2]; listed as gRNA9/Cas9) | cell viability (MTT) ([2]; listed as gRNA5/Cas9) |
| --- | --- | --- | --- | --- | --- | --- | --- | --- |
| GGTCTCCATGCGACGTGCAGNGG [gRNA9] | ~ 50% | 50 | most specific and potent antiviral efficacy | not cytotoxic | No cytotoxic effects | no significant differences in the viability | no differences in the viability | – |
| GTTATCGCTGGATGTGTCTGNGG (guide GUUAUCGCUGGAUGUGUCUGNGG; complexed with Cas9 protein, chemistry not fully specified) [gRNA5, tested as synthetic gRNA/Cas9 RNP] | ~ 50% | 50 | most specific and potent antiviral efficacy | not cytotoxic | No cytotoxic effects | no significant differences in the viability | – | no differences in the viability |
